# Test results reported in US4900719A, “Nitrosothiols as hypotensive agents” (The Ohio State University, priority 1988, dated 1990).
# Columns and labels:
# anesthetized dogs [1] = assay: arterial blood pressure after intravenous injection in anesthetized dogs (Examples 2 and 3); assay type: in vivo; settings: intravenous injection in dextrose
# [2] = stability of other nitrosothiols (qualitative statement); assay type: physicochemical
# [3] = storage stability of solid GSNO (absorbance at 544 nm); assay type: physicochemical
# Method: In air at 4° no change in the characteristic original absorbance at 544 nm was observed after 32 days. At room temperature, 75% of that absorption remained after the same period.
# anesthetized dogs [4] = assay: mean arterial pressure during venous infusion in anesthetized dogs; assay type: in vivo, mongrel dogs
# Method: (§1) Fifty milligrams of SNP (Nipride, Roche Laboratories) was reconstituted in 250 ml of 5% dextrose in water. A GSNO solution was diluted as 50 ug/ml in 5% dextrose in water. Seven mongrel dogs (18.1-31.8 kg) and seven cynomologus monkeys (Macaca fascicularis; 4.4-9.0 kg) were used in the study. The animals were given a pre-anesthetic (monkeys--Ketamine HCl, 10 mg/kg I.M.; dogs--0.2 mg/kg fentanyl and 1 mg/kg droperidol, Innovar Vet I.V.) and anesthetized with a mixture of α-chloralose (50 mg/kg) and urethane (500 mg/kg) given as an intravenous injection. The left femoral artery and vein were cannulated with heparinized saline-filled catheters. Arterial pressure was obtained from the arterial catheter using an electromedics MS-20 solid state pressure transducer and recorded on a Gould 2400 chart recorder. Randomized venous infusions of GSNO (n=7) and SNP (n=5) were made using Harvard apparatus compact infusion pump model 976. The infusion was maintained until a new steady state value for mean arterial pressure had been obtained for each infusion rate. The infusion rate was varied over the following ranges: GSNO 1.5-38.9 μg/kg/min (8 levels) and SNP 1.7-43.8 μg/kg/min (6 levels).
# (§2) Intravenous administrations of GSNO or SNP in a wide range of doses decreased systematic arterial pressure in a dose related fashion. […]
# anesthetized monkeys = assay: mean arterial pressure during venous infusion in anesthetized monkeys; assay type: in vivo, cynomologus monkeys (Macaca fascicularis)
# Method: as §1, §2
# [5] = system: anesthetized dogs and monkeys; assay: venous infusion in anesthetized dogs and monkeys, collected animal data (response time, onset/dissipation, effective dosage); assay type: in vivo
# Method: as §1
# Intravenous administrations of GSNO or SNP in a wide range of doses decreased systematic arterial pressure in a dose related fashion. FIGS. 1 and 2 show the dose-response curves for the dogs and monkeys, respectively, that occurred by SNP or GSNO administrations. In each figure (.) presents the data for SNP and (o) presents the data for GSNO. The blood pressure lowering effect of SNP and GSNO is greater in monkeys than in dogs. When 20 μg/kg/min of SNP or GSNO was administered, mean arterial pressure decreased 35-40 torr for dogs and 45 torr for monkeys. The noted response time for SNP was about 28.6±2.5 sec. and for GSNO about 33.4±6.0 sec.
# From the collected animal data, it can be noted that in general the decrease in blood pressure is dosage dependent.
"change in characteristic original absorbance at 544 nm ([3]; in air at 4°, after 32 days)","absorption at 544 nm remaining ([3]; room temperature, after 32 days)",effect of exclusion of light and air on stability ([3]; storage for more than 30 days),Structure (SMILES),lowering of arterial blood pressure (in words) (anesthetized dogs [1]),stability (in words) [2],"blood pressure lowering (in words) (anesthetized dogs [4]; anesthetized dogs, venous infusion, to about the same extent as SNP)","decrease in mean arterial pressure (anesthetized dogs [4]; dogs, 20 μg/kg/min venous infusion)","blood pressure lowering (in words) (anesthetized monkeys; anesthetized monkeys, venous infusion, to about the same extent as SNP)","decrease in mean arterial pressure (anesthetized monkeys; monkeys, 20 μg/kg/min venous infusion)","onset and dissipation of effect ([5]; anesthetized dogs and monkeys, compared with SNP)","effective dosage to significantly lower arterial pressure ([5]; infusion administration, from the collected animal data)","response time ([5]; venous infusion, species not stated)"
–,–,–,"C[C@H](CSN=O)C(=O)N1CCC[C@H]1C(=O)O [S-Nitrosocaptopril, D-(S-nitroso) 3-mercaptomethylpropionyl-L-proline]",Significant lowering of arterial blood pressure,quite stable,–,–,–,–,–,–,–
no change,75%,virtually no noticeable effect,"N[C@@H](CCC(=O)N[C@@H](CSN=O)C(=O)NCC(=O)O)C(=O)O [GSNO, S-nitrosoglutathione]",–,–,significantly lowered blood pressure,35-40 torr,significantly lowered blood pressure,45 torr,essentially the same as obtained with SNP,at least 7 μg/1 kg animal weight/minute,about 33.4±6.0 sec.
